Patent EP1191024A1, “Thiadiazines and their use as inhibitors of metalloproteinases” (Tschesche, Harald, priority 2000, dated 2002)
Read-outs that look alike come from different tables or passages of the source.

Legend:
Assay in all cases: MMP microfluorometric profiling assay (fluorogenic Mca-peptide substrate)
Format in all cases: biochemical
MMP-1 = biological target: T1, MMP-1 (Homo sapiens, UniProt P03956)
T1 construct: MMP-1 from human rheumatoid synovial fibroblasts was purchased; purchased Calbiochem-Novabiochem Corporation, LaJolla; host or cells: human rheumatoid synovial fibroblasts
T1 sequence (P03956 100-469): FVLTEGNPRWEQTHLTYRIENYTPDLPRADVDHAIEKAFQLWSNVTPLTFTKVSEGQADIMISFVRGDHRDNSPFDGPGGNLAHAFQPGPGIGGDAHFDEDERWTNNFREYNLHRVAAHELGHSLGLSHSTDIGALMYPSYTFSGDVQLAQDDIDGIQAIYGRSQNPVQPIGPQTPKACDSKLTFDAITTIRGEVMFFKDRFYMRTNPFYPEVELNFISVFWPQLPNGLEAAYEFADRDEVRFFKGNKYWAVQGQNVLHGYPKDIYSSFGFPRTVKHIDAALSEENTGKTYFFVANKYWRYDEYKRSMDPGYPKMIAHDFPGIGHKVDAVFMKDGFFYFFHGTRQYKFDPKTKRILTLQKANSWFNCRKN
Experimental: (§1) The tested MMP enzymes were prepared more specifically in the laboratories of the applicants, with the exception of MMP-1. MMP-1 from human rheumatoid synovial fibroblasts was purchased from Calbiochem-Novabiochem Corporation, LaJolla. Preparation of the recombinant catalytic domain of human Gelatinase A (cdMMP-2): The catalytic domain of Pro-Gelatinase A was prepared using an E. coli expression system according to the method described by Kröger et al^[19]. The proenzyme was activated with 0.5 mM APMA at 37°C prior to use in the assay. Preparation of the recombinant catalytic domain of human neutrophile Collagenase (cdMMP-8^Met80): The enzyme was expressed in E. coli as an active variant by the method of Kleine et al^[20]. Preparation of PMNL-Gelatinase (MMP-9): Latent PMNL-pro-Gelatinase was prepared from human plasma buffy coat as described by Tschesche et al^[21]. PMNL-pro-Gelatinase was activated prior to use by incubation with Trypsin at 37°C for 10 min. Inactivation of Trypsin was accomplished with TKI. Preparation of the recombinant catalytic domain of human Macrophage Elastase (cdMMP-12): The catalytic domain of MMP-12 was expressed in E. coli. The overexpressed protein was isolated as inclusion bodies and the renatured protein was purified by affinity chromatography with a hydroxamate inhibitor coupled column as described^[22]. Preparation of the recombinant catalytic domain of human Collagenase-3 (cdMMP-13): Human pro-cdMMP-13 was prepared using an E. coli expression system according to the method described^[23]. The isolated pro-cdMMP-13 was activated prior to use by incubation with 5 mM HgCl2 for 2 h at 37°C. Preparation of the recombinant catalytic domain of Membrane-Type-1 MMP (cdMMP-14): The catalytic domain of MMP-14 was expressed in E. coli and was activated by autocatalysis^[24]. Preparation of the recombinant human ectodomain of Membrane-Type-1 MMP (ΔTM-MMP-14): The ectodomain of MMP-14 was expressed in Pichia Pastoris by the method of Roderfeld et al. and activated by yeast proteases (Furin-like-proteases) during maturation^[25].
(§2) The enzymatic activity was measured using a modified version of a resonance energy transfer fluorogenic assay as described^[26]. Progress curves were monitored by following the increase in fluorescence at 393 nm (λex = 328 nm), induced by the cleavage of the (7-methoxycoumarin-4-yl)acetyl-Pro-Leu-Gly-Leu-(3-[2,4-dinitro-phenyl]-L-2,3-diamino-propionyl)-Ala-Arg-NH2 (Mca-Pro-Leu-Gly-Leu-Dpa-Ala-Arg-NH2) fluorogenic substrate by MMPs. The fluorescent MCA-group is quenched by resonance energy transfer to the 2,4-dinitrophenyl group. Matrix metalloproteinases cleave this substrate at the Gly-Leu bond. Cleavage results in the loss of energy transfer and a large increase in fluorescence of the MCA group. This substrate is commercially available from Bachem, Switzerland.
(§3) Enzyme inhibition assays were carried out in MRB which consisted of 50 mM HEPES/NaOH, pH 7.0, 10 mM CaCl2 and 0,02% (w/v) PEG 8000 at 25°C. MMP microfluorometric profiling assay was done in white U-bottomed 96-well plates (Microfluor 1 White, Dynex, USA) with a final substrate concentration of 6 µM MCA-peptide, approximately 0.3 to 5 nM MMP with variable inhibitor concentrations and 2% DMSO vehicle. From a 1.5 mM stock (100% DMSO) the inhibitors were serially diluted with MRB to 15, 10, 5, 3, 1, 0.6, 0.3, 0.1, 0.05, 0.01 and 0.005 µM final assay concentration. Column 1, rows A through H, contained only DMSO for the "enzyme-only" wells in the assay. After preincubation for 30 min at 25°C the reaction was started by addition of substrate and the plate was read on a SpectraFluor Plus (Tecan, Germany) plate reader with excitation at 330 nm and emission at 405 nm with the gain set to 150. Each measurement was done in triplicate to ensure statistically significant results. […]

MMP-9 = biological target: T2, MMP-9 (Homo sapiens, UniProt P14780)
T2 construct: from tissue; host or cells: human plasma buffy coat (PMNL)
Experimental: as §1, §2, §3

cdMMP-12 = biological target: T3, cdMMP-12 (Homo sapiens, UniProt P39900)
T3 construct: The catalytic domain of MMP-12 was expressed in E. coli; made in house; host or cells: E. coli
Experimental: as §1, §2, §3

cdMMP-13 = cdMMP-13 (Homo sapiens, UniProt P45452)
Experimental: as §1, §2, §3

cdMMP-14 = biological target: T4, cdMMP-14 (Homo sapiens, UniProt P50281)
T4 construct: made in house; host or cells: E. coli
Experimental: as §1, §2, §3

ΔTM-MMP-14 = biological target: T5, ΔTM-MMP-14 (Homo sapiens, UniProt P50281)
T5 construct: The ectodomain of MMP-14 was expressed in Pichia Pastoris; made in house; host or cells: Pichia pastoris
Experimental: as §1, §2, §3

T2 sequence (P14780 107-707 limits assumed): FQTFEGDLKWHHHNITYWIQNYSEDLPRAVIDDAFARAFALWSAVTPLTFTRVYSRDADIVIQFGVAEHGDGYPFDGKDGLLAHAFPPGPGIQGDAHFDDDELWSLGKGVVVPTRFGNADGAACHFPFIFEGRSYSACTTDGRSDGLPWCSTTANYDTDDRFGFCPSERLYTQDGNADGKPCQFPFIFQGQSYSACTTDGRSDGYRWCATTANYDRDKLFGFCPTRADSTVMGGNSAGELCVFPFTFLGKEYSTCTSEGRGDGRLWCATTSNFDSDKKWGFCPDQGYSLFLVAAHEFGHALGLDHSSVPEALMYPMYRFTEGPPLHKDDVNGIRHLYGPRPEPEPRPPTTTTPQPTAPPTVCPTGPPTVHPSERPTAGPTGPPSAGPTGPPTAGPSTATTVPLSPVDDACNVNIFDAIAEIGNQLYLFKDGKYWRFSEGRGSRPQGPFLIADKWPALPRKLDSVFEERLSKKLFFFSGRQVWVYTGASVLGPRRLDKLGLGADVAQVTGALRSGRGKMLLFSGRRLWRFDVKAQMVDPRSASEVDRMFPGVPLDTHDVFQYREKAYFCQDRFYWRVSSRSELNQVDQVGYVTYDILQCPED
T3 sequence (P39900 106-263 limits assumed): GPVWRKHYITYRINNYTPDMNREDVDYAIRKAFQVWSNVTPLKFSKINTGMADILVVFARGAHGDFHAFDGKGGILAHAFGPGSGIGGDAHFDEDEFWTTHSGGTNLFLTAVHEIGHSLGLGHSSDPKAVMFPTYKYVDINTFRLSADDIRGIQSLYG

IC50 (MMP-1) [µM] | IC50 (MMP-9) [µM] | IC50 (cdMMP-12) [µM] | IC50 (cdMMP-13; read-out: cdMMP-13 IC50) [µM] | IC50 (cdMMP-14) [µM] | IC50 (ΔTM-MMP-14) [µM] | percent inhibition (MMP-9; MMP-9, @ 15 (µM)) [%^a)@ 15] | Structure (SMILES) | IC50 (cdMMP-13) [µM]
0.449 | 0.329 | 0.447 | 0.387 | 0.459 | 0.709 | – | C[C@H](NS(=O)(=O)c1ccccc1)C(=O)NC1=NN=C(c2ccc(C#N)cc2)CS1 [Example 3, (2S)-N-[5-(4-Cyanophenyl)-6H-1,3,4-thiadiazin-2-yl]-2-[(phenylsulfonyl)amino]-propanamide] | –
0.629 | – | 0.426 | > 15 | 1.11 | 0.593 | 40 | CC(C)[C@@H](NS(=O)(=O)c1ccccc1)C(=O)NC1=NN=C(c2ccc(Cl)cc2)CS1 [Example 2, (2R)-N-[5-(4-Chlorophenyl)-6H-1,3,4-thiadiazin-2-yl]-3-methyl-2-[(phenylsulfonyl)amino]butanamide] | –
0.725 | 0.216 | 0.425 | 0.537 | 0.727 | 0.596 | – | C[C@@H](NS(=O)(=O)c1ccccc1)C(=O)NC1=NN=C(c2ccc(F)cc2)CS1 [Example 14, (2R)-N-[5-(4-Fluorophenyl)-6H-1,3,4-thiadiazin-2-yl]-2-[(phenylsulfonyl)amino]-propanamide] | –
0.56 | 0.78 | 0.654 | 0.947 | 0.477 | 0.692 | – | O=C1C[C@@H](C(=O)NC2=NN=C(c3ccc(Cl)cc3)CS2)NC(=O)N1 [Example 30, (4S)-N-[5-(4-Chlorophenyl)-6H-1,3,4-thiadiazin-2-yl]-2,6-dioxohexahydro-4-pyrimidinecarboxamide] | –
0.52 | 0.722 | 0.298 | 0.853 | 0.605 | 0.357 | – | C[C@H](NS(=O)(=O)c1ccccc1)C(=O)NC1=NN=C(c2ccc(Cl)s2)CS1 [Example 10, (2S)-N-[5-(5-Chloro-2-thienyl)-6H-1,3,4-thiadiazin-2-yl]-2-[(phenylsulfonyl)-amino]propanamide] | –

Structure (SMILES) | IC50 (MMP-1) [µM] | IC50 (MMP-9) [µM] | IC50 (cdMMP-12) [µM] | IC50 (cdMMP-13; read-out: cdMMP-13 IC50) [µM] | IC50 (cdMMP-14) [µM] | IC50 (ΔTM-MMP-14) [µM] | percent inhibition (MMP-9; MMP-9, @ 15 (µM)) [%^a)@ 15] | IC50 (cdMMP-13) [µM]
C[C@H](NS(=O)(=O)c1ccccc1)C(=O)NC1=NN=C(c2ccc(C(F)(F)F)cc2)CS1 [Example 4, (2S)-2-[(Phenylsulfonyl)amino]-N-{5-[4-(trifluormethyl)phenyl]-6H-1,3,4-thiadiazin-2-yl}propanamide] | 0.49 | 1.04 | 0.367 | – | 1.1 | 0.708 | – | 1.03
